The numbers were not newly measured in patent US20240358791A1, “PEPTIDES AND METHODS OF TREATING DYSTROPHY-RELATED DISORDERS USING THE SAME” (Prince Biotech, LLC, priority 2017, published 2024), which cites them from elsewhere.

For this data set the following is noted: IV infusion with radiation; xerostomia treatment (Kouvaria et al 2007).

Turning to `NCCCNCCSP(=O)(O)O` [Amifostine], the side effects result is reported as “serious side effects including fatal skin reaction”.
